Assay results: ChEMBL document CHEMBL1201862, “PubChem BioAssay data set” (2004)
Values belong to the compound of their own block, whether it stands above or below them. Activity calls are given as the source filed them.

How the values were obtained:
BJ [1] = assay: growth inhibition of engineered Ras-driven BJ cells – cell-based, alamar blue fluorescence, cherrypicked samples, dose response (AID 2631); type: functional; conditions: Homo sapiens;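 also: confirmatory dose-response assay in RAS-dependent BJ fibroblasts engineered with TERT, LT and ST, with cytotoxicity read by fluorescence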
cells [2] = type: functional, cell-based
[3] = non-specific 3'UTR reporter inhibition in Clone20-Shn3RL – cell-based, Renilla luciferase, cherry-picked, counter-screen for Shn3 inhibitor project, dose response (AID 624133); type: functional
[4] = loss of viability in HepG2 cells – cell-based, CellTiter-Glo, cherry-picked, cytotoxicity control for Shn3 inhibitor project, dose response (AID 624134); type: functional
cells [5] = type: functional, cell-based; remark: listed apart in the source
HEK293 [6] = assay: cells; conditions: Homo sapiens
[7] = biological target: T1, Heat shock factor protein 1 (Mus musculus, UniProt P38532); assay: enhancement of HSF1-driven luciferase signal – cell-based, NIH3T3, luminescence, dose retest, confirmation (AID 435004); type: functional;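 also: stress induced by proteasome inhibitor MG132 added 30 min after compound; luciferase reporter driven by HSF1 response element in NIH3T3 cells; actives raise luminescence as potentiators of the MG132 stress response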
T1 sequence (P38532 whole entry): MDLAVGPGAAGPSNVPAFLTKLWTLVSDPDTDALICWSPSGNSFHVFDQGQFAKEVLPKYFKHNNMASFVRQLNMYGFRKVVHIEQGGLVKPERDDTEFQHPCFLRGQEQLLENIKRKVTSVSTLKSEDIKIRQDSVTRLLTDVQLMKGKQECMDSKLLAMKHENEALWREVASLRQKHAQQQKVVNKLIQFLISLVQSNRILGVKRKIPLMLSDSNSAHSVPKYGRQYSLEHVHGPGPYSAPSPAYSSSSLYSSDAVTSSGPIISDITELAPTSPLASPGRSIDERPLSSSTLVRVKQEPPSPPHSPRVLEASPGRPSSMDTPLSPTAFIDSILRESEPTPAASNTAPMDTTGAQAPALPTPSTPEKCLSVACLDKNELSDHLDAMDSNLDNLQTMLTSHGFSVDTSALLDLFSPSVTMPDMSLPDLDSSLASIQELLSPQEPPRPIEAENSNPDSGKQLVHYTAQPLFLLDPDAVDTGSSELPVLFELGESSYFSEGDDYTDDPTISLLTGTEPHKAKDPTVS

[8] = viability loss in HEK293T cells – cell-based, cherry-picks, cytotoxicity control for HIV Vif inhibitor project, dose response (AID 652208); type: functional
X-box-binding protein 1 = X-box-binding protein 1 (Homo sapiens, UniProt P17861); type: functional, Cricetulus griseus;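 also: confirmatory dose-response counter-screen serving a CHOP assay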
X-box-binding protein 1, sequence (P17861 whole entry): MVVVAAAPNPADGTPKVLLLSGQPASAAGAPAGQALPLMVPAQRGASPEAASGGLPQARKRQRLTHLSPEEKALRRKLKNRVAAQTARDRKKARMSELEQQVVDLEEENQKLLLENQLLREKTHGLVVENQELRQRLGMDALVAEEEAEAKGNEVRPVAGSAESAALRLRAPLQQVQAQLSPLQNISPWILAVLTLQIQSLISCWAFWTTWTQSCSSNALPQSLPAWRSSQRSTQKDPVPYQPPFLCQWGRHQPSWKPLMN

[9] = reduction of Shn3 3'UTR-driven luciferase in osteoblasts – cell-based, Clone20 osteoblasts, firefly luciferase, cherry-picked, dose response (AID 624132); type: functional;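 also: firefly luciferase luminescence from reporter carrying the Shn3 3'UTR in osteoblasts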
HEK293 [10] = assay: cells; conditions: Homo sapiens; remark: listed apart in the source
[11] = biological target: Tyrosine-protein phosphatase non-receptor type 11 (Homo sapiens, UniProt Q06124); assay: PTPN11 enzyme inhibitors – biochemical, selectivity assay for STEP inhibitor project, dose response (AID 602367); type: functional; conditions: read-out: IC50_Mean
[12] = biological target: Dual specificity protein phosphatase 3 (Homo sapiens, UniProt P51452); assay: VHR phosphatase inhibition, dose response, selectivity assay for STEP inhibitor project, biochemical (AID 602374); type: functional; conditions: read-out: IC50_Mean
Dual specificity protein phosphatase 3, sequence (P51452 whole entry): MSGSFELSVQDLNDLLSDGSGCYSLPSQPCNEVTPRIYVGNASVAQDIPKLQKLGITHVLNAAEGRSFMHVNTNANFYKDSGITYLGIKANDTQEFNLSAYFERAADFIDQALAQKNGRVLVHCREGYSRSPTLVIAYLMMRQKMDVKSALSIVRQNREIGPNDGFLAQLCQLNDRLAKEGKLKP

[13] = biological target: Protein-tyrosine kinase 2-beta (Homo sapiens, UniProt Q14289);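 also: potency of inhibitors of PYK2 kinase phosphorylation of poly-GT substrate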
Protein-tyrosine kinase 2-beta, sequence (Q14289 whole entry): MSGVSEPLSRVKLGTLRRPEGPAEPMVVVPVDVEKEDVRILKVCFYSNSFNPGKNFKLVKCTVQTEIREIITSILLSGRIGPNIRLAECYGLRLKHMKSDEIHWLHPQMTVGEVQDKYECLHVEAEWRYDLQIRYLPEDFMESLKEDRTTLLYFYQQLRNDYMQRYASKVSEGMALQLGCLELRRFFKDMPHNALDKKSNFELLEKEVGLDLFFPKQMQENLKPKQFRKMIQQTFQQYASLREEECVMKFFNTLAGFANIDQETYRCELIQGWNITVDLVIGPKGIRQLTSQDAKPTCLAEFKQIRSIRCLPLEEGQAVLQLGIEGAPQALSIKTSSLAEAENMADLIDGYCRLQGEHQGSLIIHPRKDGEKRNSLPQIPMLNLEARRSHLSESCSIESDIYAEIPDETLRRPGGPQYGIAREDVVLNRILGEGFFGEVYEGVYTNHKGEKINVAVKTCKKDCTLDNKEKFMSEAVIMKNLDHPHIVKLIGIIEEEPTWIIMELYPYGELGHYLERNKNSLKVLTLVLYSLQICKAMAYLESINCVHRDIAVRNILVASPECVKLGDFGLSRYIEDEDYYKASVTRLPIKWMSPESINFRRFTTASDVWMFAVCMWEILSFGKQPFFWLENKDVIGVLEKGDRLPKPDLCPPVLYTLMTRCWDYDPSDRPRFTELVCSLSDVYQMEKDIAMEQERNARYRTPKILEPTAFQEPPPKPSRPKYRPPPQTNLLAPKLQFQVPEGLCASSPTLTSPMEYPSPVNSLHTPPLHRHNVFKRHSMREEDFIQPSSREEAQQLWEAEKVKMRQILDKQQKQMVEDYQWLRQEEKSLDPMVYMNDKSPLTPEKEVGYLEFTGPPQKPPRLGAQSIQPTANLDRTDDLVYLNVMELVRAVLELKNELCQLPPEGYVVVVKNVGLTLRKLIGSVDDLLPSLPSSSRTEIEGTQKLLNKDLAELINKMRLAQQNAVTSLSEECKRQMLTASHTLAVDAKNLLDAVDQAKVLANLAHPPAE

[14] = biological target: T2, Beta-2 adrenergic receptor (Homo sapiens, UniProt P07550); assay: ADRB2 activation measured by internalization – cell-based, FAP fluorogen, flow cytometry, cherry pick 1, dose response (AID 588763); type: functional
T2 sequence (P07550 whole entry): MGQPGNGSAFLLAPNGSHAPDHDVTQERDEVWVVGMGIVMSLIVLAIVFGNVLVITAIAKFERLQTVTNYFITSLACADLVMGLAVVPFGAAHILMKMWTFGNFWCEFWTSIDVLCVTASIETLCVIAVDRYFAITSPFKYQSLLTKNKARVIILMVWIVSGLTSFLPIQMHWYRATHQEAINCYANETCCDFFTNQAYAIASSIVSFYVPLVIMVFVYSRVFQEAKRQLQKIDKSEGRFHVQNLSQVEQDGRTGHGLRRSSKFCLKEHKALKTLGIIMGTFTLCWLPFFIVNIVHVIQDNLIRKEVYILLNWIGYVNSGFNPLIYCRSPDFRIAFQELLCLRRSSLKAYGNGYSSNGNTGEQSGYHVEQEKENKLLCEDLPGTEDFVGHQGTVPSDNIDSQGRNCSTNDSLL

[15] = biological target: T3, Tyrosine-protein phosphatase non-receptor type 7 (Homo sapiens, UniProt P35236); assay: HePTP tyrosine phosphatase activity blockers – biochemical, absorbance, leukemia target, primary screen (AID 521); type: functional
T3 sequence (P35236 whole entry): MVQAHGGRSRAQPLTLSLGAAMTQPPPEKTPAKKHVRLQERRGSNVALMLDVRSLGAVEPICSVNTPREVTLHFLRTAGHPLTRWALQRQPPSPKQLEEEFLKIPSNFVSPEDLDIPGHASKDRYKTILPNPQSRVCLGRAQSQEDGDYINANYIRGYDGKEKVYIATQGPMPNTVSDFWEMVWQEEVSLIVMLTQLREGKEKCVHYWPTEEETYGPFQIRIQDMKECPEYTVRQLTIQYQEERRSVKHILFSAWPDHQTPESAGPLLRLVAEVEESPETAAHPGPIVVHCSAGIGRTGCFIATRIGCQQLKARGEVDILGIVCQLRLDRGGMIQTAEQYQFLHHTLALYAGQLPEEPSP

[16] = biological target: T2, Beta-2 adrenergic receptor; assay: Dose response for HTS for Beta-2AR agonists via FAP method from Powderset1.; type: functional
Cytochrome P450 2C9 = Cytochrome P450 2C9 (Homo sapiens, UniProt P11712)
Cytochrome P450 2C9, sequence (P11712 whole entry): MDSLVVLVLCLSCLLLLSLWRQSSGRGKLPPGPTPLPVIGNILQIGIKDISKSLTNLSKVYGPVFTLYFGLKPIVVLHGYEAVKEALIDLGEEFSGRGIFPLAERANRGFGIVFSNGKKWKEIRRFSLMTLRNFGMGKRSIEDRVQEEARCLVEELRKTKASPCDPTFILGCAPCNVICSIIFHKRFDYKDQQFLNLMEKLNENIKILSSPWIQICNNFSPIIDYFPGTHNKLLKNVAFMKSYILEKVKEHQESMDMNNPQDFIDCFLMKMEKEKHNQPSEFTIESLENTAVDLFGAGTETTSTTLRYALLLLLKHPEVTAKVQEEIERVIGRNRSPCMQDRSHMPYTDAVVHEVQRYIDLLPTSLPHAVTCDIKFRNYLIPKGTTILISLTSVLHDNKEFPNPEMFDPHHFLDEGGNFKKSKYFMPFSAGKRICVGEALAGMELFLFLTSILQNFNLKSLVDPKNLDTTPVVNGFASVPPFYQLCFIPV

[17] = biological target: Tyrosine-protein phosphatase non-receptor type 5 (Homo sapiens, UniProt P54829); assay: PTPN5 enzyme inhibition – biochemical, fluorescence intensity, uHTS hits, confirmation (AID 602372); type: functional; conditions: read-out: IC50_Mean
Tyrosine-protein phosphatase non-receptor type 5, sequence (P54829 whole entry): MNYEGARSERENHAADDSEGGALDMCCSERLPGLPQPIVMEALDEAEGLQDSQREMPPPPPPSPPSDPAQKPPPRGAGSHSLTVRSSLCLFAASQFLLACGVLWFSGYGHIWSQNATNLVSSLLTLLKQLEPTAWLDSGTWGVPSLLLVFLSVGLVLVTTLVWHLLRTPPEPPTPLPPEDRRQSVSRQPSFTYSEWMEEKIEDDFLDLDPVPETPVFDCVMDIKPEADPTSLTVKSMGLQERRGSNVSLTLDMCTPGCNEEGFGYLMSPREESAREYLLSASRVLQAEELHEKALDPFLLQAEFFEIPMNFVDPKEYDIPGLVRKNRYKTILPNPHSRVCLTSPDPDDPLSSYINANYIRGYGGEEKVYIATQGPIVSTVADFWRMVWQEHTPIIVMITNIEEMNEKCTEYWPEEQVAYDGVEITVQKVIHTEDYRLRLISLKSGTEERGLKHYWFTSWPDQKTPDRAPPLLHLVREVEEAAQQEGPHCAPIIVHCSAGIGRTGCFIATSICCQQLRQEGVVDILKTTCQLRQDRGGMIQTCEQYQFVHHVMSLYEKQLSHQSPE

[18] = biological target: ADP-ribosylation factor GTPase-activating protein 1 (Rattus norvegicus, UniProt Q62848); assay: Fluorescence polarization-based biochemical high throughput dose response screening assay to identify inhibitors of ADP-ribosylation factor GTPase activating protein 1 (ARFGAP1).; type: functional
ADP-ribosylation factor GTPase-activating protein 1, sequence (Q62848 whole entry): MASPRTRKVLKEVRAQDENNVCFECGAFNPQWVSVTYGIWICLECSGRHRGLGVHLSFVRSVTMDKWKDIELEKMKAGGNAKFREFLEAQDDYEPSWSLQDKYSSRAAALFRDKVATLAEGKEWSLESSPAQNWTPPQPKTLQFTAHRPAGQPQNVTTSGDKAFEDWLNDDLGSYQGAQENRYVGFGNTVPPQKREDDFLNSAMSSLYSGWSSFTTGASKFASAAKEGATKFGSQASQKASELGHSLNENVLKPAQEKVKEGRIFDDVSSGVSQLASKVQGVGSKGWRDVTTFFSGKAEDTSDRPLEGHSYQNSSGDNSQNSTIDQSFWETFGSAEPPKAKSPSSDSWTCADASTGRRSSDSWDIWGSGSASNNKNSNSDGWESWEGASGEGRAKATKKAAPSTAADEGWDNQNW

[19] = biological target: Nuclear receptor subfamily 5 group A member 2 (Homo sapiens, UniProt O00482); type: functional, cell-based;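 also: HEK293T cells transfected with LRH-1 and a StAR promoter luciferase reporter; potency for inhibitors that lower LRH-1 driven reporter light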
Nuclear receptor subfamily 5 group A member 2, sequence (O00482 whole entry): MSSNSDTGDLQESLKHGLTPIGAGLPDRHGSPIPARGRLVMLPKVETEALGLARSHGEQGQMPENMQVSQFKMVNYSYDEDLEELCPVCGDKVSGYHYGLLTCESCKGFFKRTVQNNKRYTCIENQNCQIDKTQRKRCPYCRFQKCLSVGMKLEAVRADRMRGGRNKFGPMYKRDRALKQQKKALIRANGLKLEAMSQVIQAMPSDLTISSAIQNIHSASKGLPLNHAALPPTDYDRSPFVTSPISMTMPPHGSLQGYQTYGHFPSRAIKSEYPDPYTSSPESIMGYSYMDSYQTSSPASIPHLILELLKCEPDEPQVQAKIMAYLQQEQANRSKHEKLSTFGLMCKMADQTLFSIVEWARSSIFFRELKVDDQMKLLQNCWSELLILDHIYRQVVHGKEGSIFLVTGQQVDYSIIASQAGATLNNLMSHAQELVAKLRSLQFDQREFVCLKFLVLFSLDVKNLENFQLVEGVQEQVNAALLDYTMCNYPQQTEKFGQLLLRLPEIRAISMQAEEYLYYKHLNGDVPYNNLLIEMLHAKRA

[20] = nonselective StAR promoter luciferase inhibitors – cell-based, luminescence, luciferase reporter, counter-screen for LRH-1 inverse agonist project, dose response (AID 651969); type: functional
Steroidogenic factor 1 = Steroidogenic factor 1 (Homo sapiens, UniProt Q13285); assay: Counterscreen for inverse agonists of the liver receptor homolog-1 (LRH-1; NR5A2): Luminescence-based cell-based high throughput dose response assay to identify inverse agonists of the Steroidogenic Factor 1 Nuclear Receptor (SF1; NR5A1).; type: functional
BJ [21] = assay: BJ-TERT-LT-ST fibroblast viability loss – cell-based, RAS-independent, luminescence, dose response (AID 1935); type: functional; conditions: Homo sapiens;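 also: BJ fibroblasts immortalized with TERT plus LT and ST oncogenes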
Paired box protein Pax-8 = Paired box protein Pax-8 (Homo sapiens, UniProt Q06710); assay: PAX8 transcriptional activity inhibition in RMG-I – RMG-I cells, luciferase, cherry-pick, dose response (AID 687027); type: functional, cell-based;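 also: luciferase reporter driven by Pax8 target thyroperoxidase promoter measured by SteadyGlo luminescence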
Paired box protein Pax-8, sequence (Q06710 whole entry): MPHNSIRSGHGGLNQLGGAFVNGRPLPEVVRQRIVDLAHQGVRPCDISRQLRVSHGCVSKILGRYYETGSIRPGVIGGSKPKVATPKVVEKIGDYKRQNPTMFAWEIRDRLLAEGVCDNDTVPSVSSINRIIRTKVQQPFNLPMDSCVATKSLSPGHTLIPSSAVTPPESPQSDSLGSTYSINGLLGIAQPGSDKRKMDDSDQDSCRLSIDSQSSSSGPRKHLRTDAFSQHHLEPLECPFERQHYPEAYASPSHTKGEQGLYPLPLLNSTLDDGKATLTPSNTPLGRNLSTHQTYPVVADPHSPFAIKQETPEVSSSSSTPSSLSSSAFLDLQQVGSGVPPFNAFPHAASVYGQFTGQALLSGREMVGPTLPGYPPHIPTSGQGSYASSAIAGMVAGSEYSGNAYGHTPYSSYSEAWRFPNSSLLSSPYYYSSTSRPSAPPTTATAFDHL

[22] = DRD fibroblast viability loss – cell-based, non-viral oncogenic, luminescence, dose response (AID 1934); type: functional; conditions: Homo sapiens
BJ [23] = assay: BJ-TERT fibroblast viability loss – cell-based, RAS-independent, luminescence, dose response (AID 1933); type: functional; conditions: Homo sapiens
cells [24] = type: functional, cell-based; remark: listed apart in the source
BJ [25] = assay: cells; type: functional, cell-based; conditions: Homo sapiens
[26] = biological target: Nuclear receptor subfamily 0 group B member 1 (Homo sapiens, UniProt P51843); type: functional, cell-based;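 also: HEK293T cells transfected with SF-1 and DAX-1 plus StAR promoter luciferase reporter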
Nuclear receptor subfamily 0 group B member 1, sequence (P51843 whole entry): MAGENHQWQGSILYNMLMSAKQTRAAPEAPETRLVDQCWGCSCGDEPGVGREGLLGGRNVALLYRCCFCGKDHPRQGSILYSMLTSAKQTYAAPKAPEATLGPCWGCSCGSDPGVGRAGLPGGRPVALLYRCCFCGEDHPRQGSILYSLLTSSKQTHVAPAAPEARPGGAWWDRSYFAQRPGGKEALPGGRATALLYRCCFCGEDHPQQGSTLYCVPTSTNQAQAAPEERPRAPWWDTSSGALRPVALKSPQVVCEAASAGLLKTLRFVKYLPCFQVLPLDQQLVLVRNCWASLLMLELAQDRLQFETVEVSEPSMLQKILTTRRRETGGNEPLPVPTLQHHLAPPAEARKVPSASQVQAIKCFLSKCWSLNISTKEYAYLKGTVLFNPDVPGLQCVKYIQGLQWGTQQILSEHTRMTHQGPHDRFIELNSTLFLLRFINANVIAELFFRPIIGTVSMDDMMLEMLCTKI

[27] = biological target: T2, Beta-2 adrenergic receptor; assay: Dose response for HTS for Beta-2AR agonists via FAP method from Powderset3.; type: functional
[28] = biological target: Peroxisome proliferator-activated receptor gamma/Nuclear receptor coactivator 2 (Homo sapiens, UniProt P37231); type: functional;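 also: agonist potency for raising coactivator recruitment to the receptor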
[29] = biological target: Peroxisome proliferator-activated receptor gamma/Nuclear receptor coactivator 3 (Homo sapiens, UniProt P37231); type: functional;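 also: agonist potency for raising coactivator recruitment to the receptor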
[30] = viability of HCT116 lacking mutant beta-catenin – cell-based, human colon tumor, dose response (AID 1045); type: functional;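 also: HCT116 colon tumor cells with beta catenin knocked out; cells exposed to compound for 60 hours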
[31] = biological target: Peroxisome proliferator-activated receptor gamma/Nuclear receptor coactivator 1 (Homo sapiens, UniProt P37231); type: functional;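 also: agonist potency as compounds enhance coactivator SRC-1 recruitment to PPARgamma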
[32] = viability of PTEN-deleted HCT116 cells – cell-based, HCT116 PTEN knockout, dose response (AID 1047); type: functional;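 also: HCT116 colon tumor cells with PTEN knocked out; cells exposed to compound for 60 hours before readout; potency for loss of cell viability measured by luminescence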

SMILES: Cc1cc(Cl)n2c(nc3cc(F)c(F)cc32)c1C#N
EC50 (BJ [1]): 0.139 µM (inconclusive) | EC50 (cells [2]): > 350 µM (not active) | AC50 [3]: 6.62 µM (active) | AC50 [4]: 14.8 µM (active) | EC50 (cells [5]): 54.5 µM (active) | EC50 (HEK293 [6]): > 59.6 µM (inactive) | EC50 [7]: 3.35 µM (active) | AC50 [8]: 4.49 µM (active) | Absolute IC50 (XBP1) (X-box-binding protein 1): 10 µM | AC50 [9]: 3.56 µM (active) | EC50 (HEK293 [10]): > 59.6 µM (inactive)

IC50 [11]: 0.368 µM (active) | IC50 [12]: 0.767 µM (active) | IC50 [13]: > 69.5 µM (not active) | EC50 [14]: 0.476 µM (active) | IC50 [15]: 5.28 µM (active) | EC50 [16]: 0.261 µM (active) | AC50 (Cytochrome P450 2C9): inconclusive | IC50 [17]: 3.98 µM (active)
SMILES: CCc1ccc(OCC(=O)Nc2ccc(-c3nc4ccccc4o3)c(O)c2)cc1

IC50 [18]: 53.1 µM (inactive)
SMILES: COc1ccc(NC(=O)Cn2nnc(C(=O)Nc3ccc(F)c(Cl)c3)c2N)cc1

SMILES: COc1ccc(-n2c(N)c(C(=O)NCc3cccnc3)sc2=S)cc1
IC50 [19]: 35.9 µM (inactive) | IC50 [20]: 35.9 µM (inactive) | IC50 (Steroidogenic factor 1): 5.22 µM (active)

SMILES: CCOC(=O)N1CCC(NC(=O)c2ccc3c(c2)N=C(C)c2c(C)ccc(C)c2S3)CC1
EC50 (BJ [21]): 1.43 µM (active) | AC50 (Paired box protein Pax-8): 3.05 µM (active) | EC50 [22]: 1.12 µM (active) | EC50 (BJ [23]): 1.52 µM (active) | IC50 (cells [24]): > 67.5 µM (inactive) | EC50 (BJ [25]): 29.3 µM (active) | IC50 [26]: > 67.5 µM (inactive)

SMILES: CC(C)Cc1nc2sc3c(NCc4ccco4)ncnc3c2c2c1COC(C)(C)C2
EC50 [14]: 0.615 µM (active) | EC50 [27]: 0.0238 µM (active) | EC50 [28]: > 79.4 µM (not active) | EC50 [29]: > 79.4 µM (not active) | EC50 [30]: 14 µM (active) | EC50 [31]: > 79.4 µM (not active) | EC50 [32]: 14.3 µM (active)
